Source: patent publication US9352015B2, “Antimicrobial peptides” (priority 2009, dated 2016)
In brackets after ≈: the same amount, converted by molar mass. Where two headings read alike, the source gives them in different places.

Columns and labels:
[1] = RP-HPLC temperature profiling (peptide self-association parameter PA); type: physicochemical; settings: enantiomer pairs of V681 analogs, 5° C. to 80° C., relative to peptide C
Outline: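 Peptide retention was profiled by RP-HPLC at pH 2 from 5 °C to 80 °C in 3 °C increments, using a linear gradient of 0.5% acetonitrile/min. The monomeric random-coil control peptide C profile was subtracted. PA is the maximum change in retention time relative to control C; higher PA means greater self-association.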

[2] = system: Methicillin Resistant Staphylococcus aureus (MRSA) and Staphylococcus aureus; type: cell-based; settings: Mueller Hinton medium; for MIC: 24 hours at 37° C.
Outline: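 MICs by microtiter broth dilution in triplicate determinations, mostly LB no-salt medium (sometimes MH or BHI), final inoculum 5×10^5 CFU/ml (1×10^5 CFU/ml in the MH variant), 24 h at 37 °C. MIC is the lowest peptide concentration inhibiting growth; tested on 20 clinical MRSA and S. aureus isolates.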

Acinetobacter baumannii = type: cell-based
Outline: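 Microtiter broth dilution in triplicate, mainly LB no-salt medium (MH or BHI in some cases), peptides serially diluted, final inoculum 5×10^5 CFU/ml (1×10^5 CFU/ml in MH variant); 24 h at 37° C. MIC is the lowest peptide concentration inhibiting growth, given in micromolar against clinical isolates.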

[3] = Hemolytic activity against human erythrocytes (HC50 / MHC, microtiter dilution); type: cell-based; settings: 1% human erythrocytes, pH 7.4, read-out: Hemolytic activity HC50
Description: (§1) Hemoglobin release was determined spectrophotometrically at 570 nm. The hemolytic activity was determined as the peptide concentration that caused 50% hemolysis of erythrocytes after 18 h (HC50). […] HC50 was determined by a plot of peptide concentration versus percent lysis.

human erythrocytes [4] = assay: as above; type: cell-based
Description: as §1

human erythrocytes [5] = assay: as above; type: cell-based; settings: V681 analog studies
[6] = human erythrocytes, concentration of peptide that results in 50% hemolysis after 18 hours at 37° C.
[7] = human red blood cells, 50% hemolysis after 18 h

For `CC[C@@H](C)[C@@H](NC(=O)[C@@H](C)NC(=O)[C@@H](CCCCN)NC(=O)[C@@H](CC(C)C)NC(=O)[C@@H](C)NC(=O)[C@H](NC(=O)[C@@H](Cc1c[nH]cn1)NC(=O)[C@@H](CC(C)C)NC(=O)[C@H](NC(=O)[C@H](NC(=O)[C@@H](CCCCN)NC(=O)[C@@H](CCCCN)NC(=O)[C@@H](C)NC(=O)[C@@H](CO)NC(=O)[C@@H](CCCCN)NC(=O)[C@@H](Cc1ccccc1)NC(=O)[C@H](NC(=O)[C@@H](CCCCN)NC(=O)[C@@H](CC(C)C)NC(=O)[C@@H](Cc1ccccc1)NC(=O)[C@@H](CO)NC(=O)[C@@H](CCCCN)NC(=O)[C@@H](Cc1c[nH]c2ccccc12)NC(=O)[C@@H](CCCCN)NC(C)=O)[C@H](C)O)[C@H](C)O)C(C)C)[C@H](C)O)C(=O)N[C@H](CO)C(=O)N[C@H](CO)C(N)=O` [Peptide D1, Ac-KWKSFLKTFKSAKKTVLHTALKAISS-amide], the “PA (peptide self-association parameter)” value [1] was 2.1, the MIC ([2]; S. aureus strain 1) was 23.9 µM (≈ 71.5 µg/mL) and the MIC ([2]; S. aureus strain 2, R (MRSA resistant to Oxacillin)) was 12.0 µM (≈ 35.9 µg/mL). For the same molecule, the MIC ([2]; S. aureus strain 3) was 23.9 µM (≈ 71.5 µg/mL), the MIC ([2]; S. aureus strain 4, R (MRSA resistant to Oxacillin)) was 23.9 µM (≈ 71.5 µg/mL) and the MIC ([2]; S. aureus strain 5) was 23.9 µM (≈ 71.5 µg/mL). The MIC ([2]; S. aureus strain 6) was 23.9 µM (≈ 71.5 µg/mL), the MIC ([2]; S. aureus strain 7, R (MRSA resistant to Oxacillin)) was 3.0 µM (≈ 8.97 µg/mL) and the MIC ([2]; S. aureus strain 8) was 95.5 µM (≈ 286 µg/mL). The MIC ([2]; S. aureus strain 9, R (MRSA resistant to Oxacillin)) was 12.0 µM (≈ 35.9 µg/mL), the MIC ([2]; S. aureus strain 10) was 12.0 µM (≈ 35.9 µg/mL) and the MIC ([2]; S. aureus strain 11, R (MRSA resistant to Oxacillin)) was 12.0 µM (≈ 35.9 µg/mL). For the same molecule, the MIC ([2]; S. aureus strain 12, R (MRSA resistant to Oxacillin)) was 6.0 µM (≈ 17.9 µg/mL), the MIC ([2]; S. aureus strain 13) was 1.5 µM (≈ 4.49 µg/mL) and the MIC ([2]; S. aureus strain 14, R (MRSA resistant to Oxacillin)) was 6.0 µM (≈ 17.9 µg/mL). The MIC ([2]; S. aureus strain 15) was 47.7 µM (≈ 143 µg/mL), the MIC ([2]; S. aureus strain 16, R (MRSA resistant to Oxacillin)) was 23.9 µM (≈ 71.5 µg/mL) and the MIC ([2]; S. aureus strain 17) was 23.9 µM (≈ 71.5 µg/mL). It also gave an MIC ([2]; S. aureus strain 18) of 23.9 µM (≈ 71.5 µg/mL), an MIC ([2]; S. aureus strain 19) of 47.7 µM (≈ 143 µg/mL) and an MIC ([2]; S. aureus strain 20) of 12.0 µM (≈ 35.9 µg/mL). The “MIC GM (geometric mean)” value ([2]; geometric mean of the MIC values from 20 different isolates of MRSA/SA) was 15.7 µM (≈ 47 µg/mL), the MIC (Acinetobacter baumannii; A. baumannii strain 1 ATCC 17978, Mueller Hinton medium, 24 hours at 37° C.) was 0.8 µM (≈ 2.39 µg/mL) and the MIC (Acinetobacter baumannii; A. baumannii strain 2 ATCC 19606, Mueller Hinton medium, 24 hours at 37° C.) was 1.5 µM (≈ 4.49 µg/mL). It also gave an MIC (Acinetobacter baumannii; A. baumannii strain 3, 649 Blood, Mueller Hinton medium, 24 hours at 37° C.) of 0.8 µM (≈ 2.39 µg/mL), an MIC (Acinetobacter baumannii; A. baumannii strain 4, 689 Groin, Mueller Hinton medium, 24 hours at 37° C.) of 0.8 µM (≈ 2.39 µg/mL) and an MIC (Acinetobacter baumannii; A. baumannii strain 5, 759 Gluteus, Mueller Hinton medium, 24 hours at 37° C.) of 1.5 µM (≈ 4.49 µg/mL). It also gave an MIC (Acinetobacter baumannii; A. baumannii strain 6, 821 Urine, Mueller Hinton medium, 24 hours at 37° C.) of 1.5 µM (≈ 4.49 µg/mL), an MIC (Acinetobacter baumannii; A. baumannii strain 7, 884 Axilla, Mueller Hinton medium, 24 hours at 37° C.) of 1.5 µM (≈ 4.49 µg/mL) and an MIC (Acinetobacter baumannii; A. baumannii strain 8, 899 Perineum, Mueller Hinton medium, 24 hours at 37° C.) of 1.5 µM (≈ 4.49 µg/mL). The MIC (Acinetobacter baumannii; A. baumannii strain 9, 964 Throat, Mueller Hinton medium, 24 hours at 37° C.) was 1.5 µM (≈ 4.49 µg/mL), the MIC (Acinetobacter baumannii; A. baumannii strain 10, 985 Pleural fluid, Mueller Hinton medium, 24 hours at 37° C.) was 0.8 µM (≈ 2.39 µg/mL) and the MIC (Acinetobacter baumannii; A. baumannii strain 11, 1012 Sputum, Mueller Hinton medium, 24 hours at 37° C.) was 0.8 µM (≈ 2.39 µg/mL). The “Antimicrobial Activity MIC against A. baumannii” value (Acinetobacter baumannii; geometric mean (GM-MIC), 11 clinical isolates) was 1.1 µM, the “MIC GM (geometric mean)” value (Acinetobacter baumannii; geometric mean of the MIC values from 11 different isolates of Acinetobacter baumannii, Mueller Hinton medium) was 1.1 µM (≈ 3.29 µg/mL) and the Acinetobacter baumannii MICGM (Acinetobacter baumannii; geometric mean, 11 different isolates, 24 hours at 37° C.) was 1.1 µM. For the same molecule, the HC50 at 18 h [3, 6] was 141 µM, the HC50 at 18 h [3, 7] was 422 µg/mL and the Hemolytic activity HC50 (human erythrocytes [4]; 50% hemolysis after 18 hours at 37° C.) was 141 µM. The “Hemolytic activity HC50” value (human erythrocytes [4]; [6]) was 140.9 µM, the “Hemolytic activity HC50” value (human erythrocytes [4]; [7]) was 421.5 µg/mL and the “Hemolytic activity HC50” value (human erythrocytes [4]; human red blood cells, 18 h) was 140.9 µM. The “Hemolytic activity, minimal hemolytic concentration (MHC)” value (human erythrocytes [5]) was “non-hemolytic”.
